Data taken from patent US20150258047A1, “Therapeutic Compounds” (AKTHELIA PHARMACEUTICALS, priority 2011, published 2015).
“And” between values parts separate entries of the source, which are not always exact repeats. Equal entries are not always repeated. Where two headings read alike, the source gives them in different places. Where no end group is shown, it is not given here.

How the values were obtained:
Shigella [1] = experiment: Shigellosis rabbit model, clinical illness and recovery; type: in vivo; conditions: for clinical illness: Shigella infected rabbits
Experimental: (§1) Anti-Shigella activity in stool extracts from PBA, TBG and NaB-treated rabbits was higher compared to infected or healthy rabbits.
(§2) In a shigellosis model a 0.14 mmol/dose lead to 2 out of 3 rabbits recovering from shigellosis. Assuming a blood volume of 121 ml in the 2 kg rabbit the maximum concentration of NaB in the blood after IV administration would have been 1.2 mM.

CAP-18 [2] = experiment: CAP-18 gene expression in tissue specimens of Shigella-infected rabbits; type: in vivo, rabbit; parameters: scale not given here; conditions: treated Shigella-infected rabbits, n = 5, median
Shigella [3] = experiment: Anti-Shigella activity in stool extracts of treated rabbits; type: in vivo, rabbit; conditions: compared to infected or healthy rabbits
Excerpt: as §1

CAP-18 [4] = experiment: CAP-18 immunoreactivity in epithelial lining of organs (immunostaining, ACIA score); type: in vivo, rabbit; conditions: for CAP-18 peptide in the mucosal epithelia: Shigella infected rabbits, lung, trachea, rectum and colon; for CAP-18 (protein) expression: oral, shigellosis infected rabbit, rectum, distal colon, kidney, lung and trachea relative to untreated infected rabbits (FIG. 1A); for CAP-18 in the organs of healthy rabbits: oral (FIG. 1B)
Excerpt: FIG. 1. CAP-18 immunoreactivity in the epithelial lining of different organs in (A) Healthy rabbits, Shigella-infected rabbits and infected rabbits treated with NaB, TBG or PBA (B) healthy rabbits treated with NaB, TBG or PBA. Quantification of immunoreactive area relative to the total cell area of the tissue section was done by a computerized image analysis technique, and the results are expressed as ACIA score, i.e., the total positively stained area×total mean intensity (1-256 levels/per pixel) of the positive area divided by total cell area. One-way ANOVA was used in comparing data between healthy and infected/infected treated rabbits, between infected and infected treated rabbits, and between healthy and healthy-treated rabbits. The differences were significant when P<0.05; ‡ significant when comparing with healthy, * significant when comparing with infected.

[5] = Maximum concentration of NaB in blood after IV administration (assumed blood volume); type: in vivo; conditions: 0.14 mmol/dose; assuming blood volume of 121 ml in the 2 kg rabbit
Experimental: as §2

Shigella flexneri strain = conditions: cited from earlier work
[6] = system: Shigella dysenteriae type 1 strain; conditions: cited from earlier work
[7] = Butyrate concentration in rabbit serum after oral NaB; type: in vivo; conditions: oral dosing of 15.6 mg to each rabbit, read-out: maximum concentration of butyrate in the blood (Cmax)
Experimental: FIG. 2. Butyrate concentration in healthy rabbit serum after oral treatment with NaB. Serum was collected from healthy rabbits at different time points after oral treatment with a single 0.14 mmol dose of NaB (15.6 mg). Four analyses (duplicate analyses of two samples) of serum from a NaB treated rabbit are shown, where the concentrations are calculated from two separate standard curves (one for each duplicate). NaB: Sodium butyrate.
The maximum concentration of butyrate in the blood is about 8 μM (Cmax) after oral dosing of 15.6 mg of butyrate to each rabbit.

[8] = system: E. coli strain E2348/69 (EPEC); type: cell-based; conditions: strain E2348/69 (EPEC, 0.90 μM)
Experimental: To assess bactericidal activity of synthetic CAP-18 and PBA, an in vitro killing experiment was carried out with E. coli strain E2348/69 (EPEC). […] Note that dosing in Phase II TB study is 1 g daily with 5000 IU vitamin D.

[9] = system: Pseudomonas aeruginosa (strain PA01); experiment: Visual inspection of VA10 cell cultures infected with Pseudomonas aeruginosa; type: cell-based; conditions: VA10 cells induced 48 h with 20 nM vitamin D, 4 mM PBA or both; 24 hrs after infection; control wells dense culture of bacteria
Experimental: FIG. 7. Visual assessment of survival of VA10 cells in the presence of low infectivity Pseudomonas aeruginosa 0-1 bacteria (PAO1). After cultivating for 6 days the cells were stimulated for 48 h with 4-PBA, VitD, and 4-PBA+VitD. Subsequently the cells were stimulated for 24 h with 10 MOI PAO1 and inspected under the microscope.
VA10 cells were grown in BEGM medium (Bronchial Epithelial Growth Medium). VA10 cells were induced by adding PBA and/or vitamin D to the medium. Untreated control was included. After 48 h induction the culture was infected with low dose of Pseudomonas aeruginosa (strain PA01) along with freeze-thaw-treated bacteria. After 24 hrs of cultivation the culture wells were visually inspected. Dense culture of bacteria was found in control wells, but the wells of cells that had been induced with 20 nM vitamin D, 4 mM PBA or combination of 20 nM vitamin D and 4 mM PBA contained clear medium (FIG. 7).

[10] = after the administration of a 5 g dose; cited from earlier work
DEFB-1 = DEFB-1 mRNA expression in VA10 cells by rtPCR; type: cell-based, human; conditions: first 4-PBA, subsequently low-dose inactivated Pseudomonas bacteria
Experimental: FIG. 9. DEFB-1 expression in VA10 cells after 48 h stimulation with 4 mM 4-PBA, 20 nM VitD, and […]+20 nM VitD and subsequent 24 h stimulation with low infectivity freeze-thawed PAO1 suspension (PAO1 has been frozen in DMEM at −25° C. for a week. The majority of bacteria have been inactivated.)
In addition to the visual inspection the degree of induction of CAMP mRNA, that codes for LL-37, and DEFB-1, that codes for […], was determined by rtPCR.

[11] = LP (lamina propria) distal colon
[12] = SE (surface epithelium) distal colon

Compound	clinical illness (Shigella [1])	CAP-18 gene expression (CAP-18 [2]; Kidney)	CAP-18 gene expression (CAP-18 [2]; [11])	CAP-18 gene expression (CAP-18 [2]; LP (lamina propria) rectum)	CAP-18 gene expression (CAP-18 [2]; Lungs)	CAP-18 gene expression (CAP-18 [2]; [12])	CAP-18 gene expression (CAP-18 [2]; SE (surface epithelium) rectum)	CAP-18 gene expression (CAP-18 [2]; Trachea)	CAP-18 gene expression (CAP-18 [2]; U. tract)	Anti-Shigella activity in stool extracts (Shigella [3])	CAP-18 peptide in the mucosal epithelia (CAP-18 [4])	CAP-18 (protein) expression (CAP-18 [4])	CAP-18 in the organs of healthy rabbits (CAP-18 [4])	visual inspection of culture wells [9]	other results
CCCC(=O)OCC(COC(=O)CCC)OC(=O)CCC [TBG, glyceryl tributyrate]	reduced clinical illness	2.7	0.43	0.07	6.4	2.8	0.4	1.11	0.25	higher	up-regulation	systemic stimulation	–	–	CAP-18 peptide level in the kidney (CAP-18 [4]; non-infected rabbits (FIG. 1B)): increased levels
CCCC(=O)O [NaB, sodium butyrate]	reduced clinical illness	17.4	0.55	0.1	12.6	5.0	0.3	0.71	0.19	higher	up-regulation	systemic stimulation	do not cause increase	–	rabbits recovering from shigellosis (Shigella [1]; 0.14 mmol/dose, intravenous): 2 out of 3; maximum concentration in the blood after IV administration [5]: 1.2 mM; concentration for maximum killing (Shigella flexneri strain): 400 mM and 44 mg/ml; CAP-18 level (CAP-18 [4]; colonic SE, intravenous injection into infected rabbits): 5.6±1.8 ACIA score; CAP-18 level (CAP-18 [4]; colonic SE, orally treated infected rabbits): 7.4±0.5 ACIA score; CAP-18 level (CAP-18 [4]; rectal SE, intravenous injection into infected rabbits): 6.5±1.8 ACIA score; CAP-18 level (CAP-18 [4]; rectal SE, orally treated infected rabbits): 8.13±1 ACIA score; concentration for maximum killing [6]: 400 mM and 44 mg/ml; Cmax [7]: ~8 µM
GLRKRLRKFRNKIKEKLKKIGQKIQGLLPKLAPRTDY [CAP-18]	–	–	–	–	–	–	–	–	–	–	–	–	–	–	killing of EPEC [8]: 97-99%
vitamin D	–	–	–	–	–	–	–	–	–	–	–	–	–	clear medium	–
O=C(O)CCCc1ccccc1 [PBA, sodium 4-phenylbutyrate, reference compound]	reduced clinical illness	3.9	0.53	0.41	5.3	2.4	0.18	1.1	0.13	higher	up-regulation	systemic stimulation	do not cause increase	clear medium	Cmax [10]: 1200 µM; DEFB-1 expression (DEFB-1): up to six-fold
CC[C@H](C)[C@H](NC(=O)[C@H](CCCCN)NC(=O)[C@H](CCC(=O)O)NC(=O)[C@H](CCCCN)NC(=O)[C@H](CO)NC(=O)[C@H](CCCCN)NC(=O)[C@H](CCCNC(=N)N)NC(=O)[C@H](Cc1ccccc1)NC(=O)[C@H](Cc1ccccc1)NC(=O)[C@H](CC(=O)O)NC(=O)CNC(=O)[C@H](CC(C)C)NC(=O)[C@@H](N)CC(C)C)C(=O)NCC(=O)N[C@@H](CCCCN)C(=O)N[C@@H](CCC(=O)O)C(=O)N[C@@H](Cc1ccccc1)C(=O)N[C@@H](CCCCN)C(=O)N[C@@H](CCCNC(=N)N)C(=O)N[C@H](C(=O)N[C@H](C(=O)N[C@@H](CCC(N)=O)C(=O)N[C@@H](CCCNC(=N)N)C(=O)N[C@H](C(=O)N[C@@H](CCCCN)C(=O)N[C@@H](CC(=O)O)C(=O)N[C@@H](Cc1ccccc1)C(=O)N[C@@H](CC(C)C)C(=O)N[C@@H](CCCNC(=N)N)C(=O)N[C@@H](CC(N)=O)C(=O)N[C@@H](CC(C)C)C(=O)N[C@H](C(=O)N1CCC[C@H]1C(=O)N[C@@H](CCCNC(=N)N)C(=O)N[C@H](C(=O)N[C@@H](CCC(=O)O)C(=O)N[C@@H](CO)C(=O)O)[C@@H](C)O)C(C)C)[C@@H](C)CC)C(C)C)[C@@H](C)CC [LL-37]	–	–	–	–	–	–	–	–	–	–	–	–	–	–	Zone diameter (Moraxella catarrhalis; 10 uM): 5.4 mm; Zone diameter (Moraxella catarrhalis; 25 uM): 6.3 mm; Zone diameter (Moraxella catarrhalis; 50 uM): 7.45 mm; Zone diameter (Moraxella catarrhalis; 100 uM): 8.9 mm; Zone diameter (Haemophilus influenzae; 50 uM): 0 mm; Zone diameter (Haemophilus influenzae; 100 uM): 7.75 mm; Zone diameter (Haemophilus influenzae; 300 uM): 13.3 mm
